According to PubChem BioAssay AID248 (DTP/NCI, 2004):
Values joined by “and” are separate entries in the source; they are usually repeats but may differ in a detail not shown here. Equal values may be shown once. Toxic doses and inconclusive results are not listed.

Test system: L1210 leukemia ip in BDF1 mice, survival T/C
Assay: NCI In Vivo Anticancer Drug Screen. Data for tumor model L1210 Leukemia (intraperitoneal) in B6D2F1 (BDF1) mice
Details: endpoint: mean survival time, higher = longer survival
How it was run: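 Read-out is survival time, reported as the treated-group measurement over the vehicle-control measurement.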

[1] = dose: 100.0 mg/kg/injection, schedule: Q01DX001 (ip), vehicle: saline
[2] = dose: 100.0 mg/kg/injection, schedule: Q04DX003 (ip), vehicle: saline
[3] = dose: 200.0 mg/kg/injection, schedule: Q01DX009 (ip), vehicle: saline
[4] = dose: 400.0 mg/kg/injection, schedule: Q01DX001 (ip), vehicle: saline
[5] = dose: 400.0 mg/kg/injection, schedule: Q04DX003 (ip), vehicle: saline

O=S(Sc1ccccc1)c1ccccc1 (stereo unspecified)
T/C (dose: 0.94 mg/kg/injection, schedule: Q01DX Z (ip), vehicle: saline): 104 % of control
T/C (dose: 3.75 mg/kg/injection, schedule: Q01DX Z (ip), vehicle: saline): 96 % of control

CC1COCC(C)N1C(=O)c1cccnc1 (stereo unspecified)
T/C [1]: 99 % of control
T/C (dose: 100.0 mg/kg/injection, schedule: Q01DX009 (ip), vehicle: saline): 101 % of control and 103 % of control
T/C (dose: 100.0 mg/kg/injection, schedule: Q04DX002 (ip), vehicle: saline): 96 % of control and 100 % of control
T/C [2]: 100 % of control
T/C (dose: 200.0 mg/kg/injection, schedule: Q01DX001 (ip), vehicle: saline): 99 % of control
T/C [3]: 113 % of control and 114 % of control
T/C (dose: 200.0 mg/kg/injection, schedule: Q04DX002 (ip), vehicle: saline): 107 % of control and 110 % of control
T/C (dose: 200.0 mg/kg/injection, schedule: Q04DX003 (ip), vehicle: saline): 105 % of control
T/C [4]: 101 % of control
T/C (dose: 400.0 mg/kg/injection, schedule: Q01DX009 (ip), vehicle: saline): 103 % of control
T/C (dose: 400.0 mg/kg/injection, schedule: Q04DX002 (ip), vehicle: saline): 105 % of control and 110 % of control
T/C [5]: 105 % of control

CCOC(=O)Cc1c(C)c2c(O)cc(O)cc2oc1=O
T/C (dose: 100.0 mg/kg/injection, schedule: Q01DX001 (ip), vehicle: carboxymethylcellulose (CMC)): 97 % of control
T/C (dose: 200.0 mg/kg/injection, schedule: Q01DX001 (ip), vehicle: carboxymethylcellulose (CMC)): 89 % of control
T/C (dose: 400.0 mg/kg/injection, schedule: Q01DX001 (ip), vehicle: carboxymethylcellulose (CMC)): 97 % of control

COC(OC(CO)C(O)S(=O)(=O)O)C(O)S(=O)(=O)O (stereo unspecified)
T/C (dose: 12.5 mg/kg/injection, schedule: Q03HX008 (ip), vehicle: saline): 100 % of control
T/C (dose: 12.5 mg/kg/injection, schedule: Q03HX016 (ip), vehicle: saline): 97 % of control
T/C (dose: 12.5 mg/kg/injection, schedule: Q03HX024 (ip), vehicle: saline): 102 % of control
T/C (dose: 25.0 mg/kg/injection, schedule: Q03HX008 (ip), vehicle: saline): 97 % of control
T/C (dose: 25.0 mg/kg/injection, schedule: Q03HX016 (ip), vehicle: saline): 102 % of control
T/C (dose: 25.0 mg/kg/injection, schedule: Q03HX024 (ip), vehicle: saline): 107 % of control
T/C (dose: 35.0 mg/kg/injection, schedule: Q01DX001 (ip), vehicle: saline): 105 % of control and 114 % of control
T/C (dose: 35.0 mg/kg/injection, schedule: Q01DX009 (ip), vehicle: saline): 123 % of control
T/C (dose: 50.0 mg/kg/injection, schedule: Q01DX009 (sc), vehicle: saline): 107 % of control
T/C (dose: 50.0 mg/kg/injection, schedule: Q03HX008 (ip), vehicle: saline): 117 % of control
T/C (dose: 50.0 mg/kg/injection, schedule: Q03HX016 (ip), vehicle: saline): 113 % of control
T/C (dose: 50.0 mg/kg/injection, schedule: Q03HX024 (ip), vehicle: saline): 122 % of control
T/C (dose: 70.0 mg/kg/injection, schedule: Q01DX001 (ip), vehicle: saline): 112 % of control and 121 % of control
T/C [1]: 244 % of control
T/C (dose: 100.0 mg/kg/injection, schedule: Q01DX009 (oral), vehicle: saline): 107 % of control
T/C (dose: 100.0 mg/kg/injection, schedule: Q01DX009 (sc), vehicle: saline): 115 % of control
T/C (dose: 100.0 mg/kg/injection, schedule: Q03HX008 (ip), vehicle: saline): 152 % of control
T/C (dose: 100.0 mg/kg/injection, schedule: Q03HX024 (ip), vehicle: saline): 167 % of control
T/C [2]: 122 % of control
T/C (dose: 140.0 mg/kg/injection, schedule: Q01DX001 (ip), vehicle: saline): 120 % of control and 121 % of control
T/C [3]: 151 % of control
T/C (dose: 200.0 mg/kg/injection, schedule: Q01DX009 (oral), vehicle: saline): 116 % of control
T/C (dose: 200.0 mg/kg/injection, schedule: Q01DX009 (sc), vehicle: saline): 113 % of control
T/C (dose: 280.0 mg/kg/injection, schedule: Q01DX001 (ip), vehicle: saline): 124 % of control
T/C (dose: 280.0 mg/kg/injection, schedule: Q01DX009 (ip), vehicle: saline): 152 % of control
T/C [4]: 194 % of control
T/C (dose: 400.0 mg/kg/injection, schedule: Q01DX009 (oral), vehicle: saline): 116 % of control
T/C [5]: 151 % of control
T/C (dose: 800.0 mg/kg/injection, schedule: Q01DX009 (oral), vehicle: saline): 103 % of control
